From US20260207604A1, “COMPOUND AND USE THEREOF” (ONQUALITY PHARMACEUTICALS CHINA LTD., priority 2022, published 2026) come the findings set out here.

A short description of series [1]: Intestinal tissue distribution study following a single oral administration in rats. It counts as in vivo, Sprague Dawley rats. The note with it: male rats, single oral 25 mg/kg; for Kp: read-out: Tissue-to-plasma concentration ratio. The procedure:
Nine male Sprague Dawley rats were orally administered Compound 1 at a dose of 25 mg/kg with a dosing volume of 10 mL/kg using purified water as the vehicle. At 0.25, 2, and 6 hours post-dosing, three animals were euthanized at each time point. A 200 μL whole blood sample was collected via cardiac puncture and plasma was separated by centrifugation.
The duodenum, jejunum, ileum, and colon were collected, contents removed, rinsed with ice-cold water, and surface moisture was blotted with filter paper before weighing. For each gram of tissue, 5 mL of methanol-water (1:3, v/v) was added for homogenization. The drug concentrations in plasma and intestinal tissue homogenates of each intestinal segment tissue were measured using LC-MS/MS.

Series [2] is described as follows: Single-dose intravenous and oral pharmacokinetic study in mice. It counts as in vivo, Balb/c mice. The procedure:
Twenty-seven male Balb/c mice were randomly divided into 3 groups, 9 mice in each group. Group 1: mice received an intravenous (IV) dose of Compound 1 at 5 mg/kg with a dosing volume of 5 mL/kg. Blood samples were collected at 0.083, 0.25, 0.5, 1, 2, 4, 6, 8, and 24 hours post-dose using a staggered sampling method. Group 2: mice received an oral (gavage) dose of Compound 1 at 50 mg/kg with a dosing volume of 10 mL/kg. Blood samples were collected at 0.25, 0.5, 1, 2, 4, 6, 8, and 24 hours post-dose using a staggered sampling method. Group 3: mice received an oral (gavage) dose of palbociclib at 50 mg/kg with a dosing volume of 10 mL/kg. Blood samples were collected at 1, 3, 4, 6, 8, 10, 12, and 24 hours post-dose using a staggered sampling method. For each group, 3 samples were collected at each time point. Plasma was separated by centrifugation and stored at −70° C. The concentrations of Compound 1 or palbociclib in plasma were measured using LC-MS/MS.

Where [3] appears, read: mouse, male Balb/c mice, IV 5 mg/kg, plasma.
Where [4] appears, read: mouse, male Balb/c mice, PO 50 mg/kg, plasma.

Broadly, the half-life is the time needed for the level to fall by half in the phase considered. Read a high half-life as slow loss. What is called Cmax is the peak of the concentration-time curve. As usually defined, the Tmax is the time from dosing to the highest level.

Structures are written as SMILES. Like-named read-outs stand apart in the source and are kept apart here.

`CC(=O)c1c(C)c2c(n(C3CCCC3)c1=O)=NC(Nc1ccc(N3CCN(S(=O)(=O)NCCN)CC3)cn1)NC=2` (stereo not drawn) [Compound 1]: the Kp in series [1] (Sprague Dawley, rat, Colon, ratio of AUC values) is 502; in series [1] (Sprague Dawley, rat, Ileum, ratio of AUC values), 4750; in series [1] (Sprague Dawley, rat, Jejunum, ratio of AUC values) it was 4300. Moreover, the AUC(0-t) in series [1] (Sprague Dawley, rat, Plasma, read-out: AUC0-t) was 1.26 ng·h/mL; in series [1] (Colon) it was 632 ng·h/g; in series [1] (Duodenum), 19300 ng·h/g; in series [1] (Ileum) it was 5980 ng·h/g; in series [1] (Jejunum) it was 5420 ng·h/g; in series [2] (setting [3]), 670 ng·h/mL. The AUC(0-t) in series [2] (setting [4]) came to 39.2 ng·h/mL. In addition, the Tissue-to-plasma concentration ratio in series [1] (Duodenum, ratio of AUC values) stood at 15300. In series [2] (male Balb/c mice, PO 50 mg/kg vs IV 5 mg/kg), this compound yielded an F of 0.6%. Besides, the “plasma concentration following oral administration compared with palbociclib” value in series [2] (mice, PO 50 mg/kg, in words) was “significantly lower than that of palbociclib”. The compound further displayed a clearance in series [2] (setting [3]) of 119 mL/min/kg. Further, the half-life in series [2] (setting [3]) was 2.69 h. For the same compound, the Vd in series [2] (mouse, male Balb/c mice, IV 5 mg/kg, plasma, read-out: Vdss) is 11 L/kg. In addition, the highest level in series [2] (setting [4]) (Cmax) was 21 ng/mL. Also, in series [2] (setting [4]), the Tmax was determined as 1 h.
